Reference: PubChem BioAssay AID1996
≈ marks a conversion by molar mass, not a printed value.

Conditions: buffer; pH 7.4; 200.0 µM
Compound O=C(CSc1nc(C2CC2)nc2ccccc12)Nc1ccccc1 has a solubility kinetic of under 0.2 µg/mL.
For Cc1ccccc1Nc1c(-c2cccnc2)nc2ccccn12, the solubility kinetic was 17.6 µg/mL (≈ 58.6 µM).
With COc1ccc(CNC(=O)Cc2cccs2)cc1 the solubility kinetic was 26.9 µg/mL (≈ 103 µM).
C=CCN1C(=O)C2(OCCCO2)c2cc(CCCC)ccc21 showed a solubility kinetic of 4.5 µg/mL (≈ 14.9 µM).
O=C(CSc1nccn1-c1cccc(F)c1)NC1CCCC1 showed a solubility kinetic of over 47.9 µg/mL.
Work on COc1ccc(/C=C2/C(=O)ON=C2C)cc1Cl yielded a solubility kinetic of 23.6 µg/mL (≈ 93.8 µM).
O=C1C2C3C=CC(CC3)C2C(=O)N1c1cccc(Br)c1 (stereo unspecified) showed a solubility kinetic of 2 µg/mL (≈ 6.02 µM).
O=C(Nc1nnc(-c2ccco2)o1)c1ccc(N2C(=O)CCC2=O)cc1 gave a solubility kinetic of over 52.8 µg/mL.
CC(C)(C)c1ccc(C2(C)NC(=O)NC2=O)cc1 (stereo unspecified) gave a solubility kinetic of 35.2 µg/mL (≈ 143 µM).
O=C(NCc1ccco1)/C(=C\c1ccco1)NC(=O)c1ccco1 showed a solubility kinetic of 47.3 µg/mL (≈ 145 µM).
In the case of CC(C)S(=O)(=O)c1csc(NC(=O)Nc2ccc(Cl)cc2)c1, the solubility kinetic is reported as 2.8 µg/mL (≈ 7.8 µM).
O=C(OCc1cc2ccccc2[nH]c1=O)c1ccc([N+](=O)[O-])cc1 showed a solubility kinetic of 1.1 µg/mL (≈ 3.39 µM).
With Cc1ccc(C(=O)N2CCN(c3ccc(C(F)(F)F)cn3)CC2)o1 the solubility kinetic was 19.8 µg/mL (≈ 58.4 µM).
For Cn1c(=O)c([N+](=O)[O-])c(-n2ccnc2)c2ccccc21, the solubility kinetic was 37.4 µg/mL (≈ 138 µM).
Work on CCOC(=O)C1CCN(C(=O)c2ccc3c(c2)OCCO3)CC1 yielded a solubility kinetic of 44.4 µg/mL (≈ 139 µM).
With Cc1ccc(/C=N/NC(=O)c2cccnc2)s1 the solubility kinetic was over 36.8 µg/mL.
CCOc1ccccc1NC(=O)c1ccc2[nH]c(C)c(C)c2c1 gave a solubility kinetic of 2.8 µg/mL (≈ 9.08 µM).
CC1C2NC(=O)N(Cc3ccccc3)C1(C)Oc1ccccc12 (stereo unspecified) showed a solubility kinetic of 20.9 µg/mL (≈ 67.8 µM).
Compound Cc1ccc(C)c(OC(C)C(=O)Nc2nccs2)c1 (stereo unspecified) has a solubility kinetic of 32.8 µg/mL (≈ 119 µM).
With Cc1noc2ncnc(SCc3ccc(C(F)(F)F)cc3)c12 the solubility kinetic was 1.1 µg/mL (≈ 3.38 µM).
For Cc1cc(NC(=O)CSc2nnc(C)o2)no1, the solubility kinetic was over 38.1 µg/mL.
With O=C(O)C1CC(=O)N(CCc2ccc(F)cc2)C1 (stereo unspecified) the solubility kinetic was over 37.7 µg/mL.
Compound CCOC(=O)C1CCCN(CC(=O)c2c[nH]c3ccc(C)cc23)C1 (stereo unspecified) has a solubility kinetic of 46.5 µg/mL (≈ 142 µM).
Compound NC(=O)C1CCN(C(=O)c2ccc(Cl)c(S(=O)(=O)N3CCCCCC3)c2)CC1 has a solubility kinetic of over 64.2 µg/mL.
CC1(C)CC(NC(=O)N2c3ccccc3Sc3ccccc32)CC(C)(C)N1 gave a solubility kinetic of 43.1 µg/mL (≈ 113 µM).
For Cc1ccc(CNc2c(C=O)c(=O)[nH]c3ccccc23)cc1, the solubility kinetic was 2.2 µg/mL (≈ 7.53 µM).
For Cc1sc2nc[nH]c(=O)c2c1-c1ccc(F)cc1, the solubility kinetic was 4.8 µg/mL (≈ 18.4 µM).
Cc1ccccc1CN(C)CC(=O)Nc1c(C)cccc1C(C)C showed a solubility kinetic of 12.1 µg/mL (≈ 37.3 µM).
With Cc1ccc(/C(O)=C/c2nc3ccccc3oc2=O)cc1 the solubility kinetic was 22.5 µg/mL (≈ 80.6 µM).
With O=C(NC1CCCCC1)Oc1ccccc1 the solubility kinetic was 18.3 µg/mL (≈ 83.5 µM).
Work on Oc1c(Cl)cc(Cl)c2c1NCCC2 yielded a solubility kinetic of 7 µg/mL (≈ 32.1 µM).
COc1ccccc1NC(=O)c1ccc2nc(C)c(C)nc2c1 gave a solubility kinetic of 16.3 µg/mL (≈ 53 µM).
For COc1ccc(CCNC(=O)COC(=O)c2ccccn2)cc1, the solubility kinetic was over 47.2 µg/mL.
Compound COc1ccc2cc(S(=O)(=O)NCc3cccnc3)ccc2c1 has a solubility kinetic of 13.8 µg/mL (≈ 42 µM).
Compound NC(=O)Cn1nc(C(F)(F)F)c2c1CCCC2 has a solubility kinetic of over 37.1 µg/mL.
In the case of O=S(=O)(NCc1nc2ccccc2[nH]1)c1ccccc1, the solubility kinetic is reported as over 43.1 µg/mL.
Work on CCc1ccccc1NC(=O)CC(NCc1ccccc1)C(=O)O (stereo unspecified) yielded a solubility kinetic of over 49 µg/mL.
Work on O=C1Nc2ccccc2O/C1=C\c1ccccc1Br yielded a solubility kinetic of 3.3 µg/mL (≈ 10.4 µM).
For O=C(O)Cn1cc(C(=O)c2ccccc2F)c2ccccc21, the solubility kinetic was 44.5 µg/mL (≈ 150 µM).
COc1ccc(Cl)cc1NC(=O)COC(=O)c1ccc(Br)o1 showed a solubility kinetic of 2.6 µg/mL (≈ 6.69 µM).
With COc1ccc(C2(CNC(=O)c3cccs3)CCOCC2)cc1 the solubility kinetic was 48.6 µg/mL (≈ 147 µM).
With Cc1cccc2c(C(=O)O)c3cccc(C)c3nc12 the solubility kinetic was 34 µg/mL (≈ 135 µM).
In the case of CCCC/C(O)=C1\C(=O)CC(C)(C)CC1=Nc1ccc(N)cc1, the solubility kinetic is reported as over 47.2 µg/mL.
With CCCOc1ccc(N2CC(C(=O)NC3=NCCS3)CC2=O)cc1 (stereo unspecified) the solubility kinetic was 43.8 µg/mL (≈ 126 µM).
For O=C(NC1CCCCC1)N1CCN(c2ccc(Cl)cc2)CC1, the solubility kinetic was 19.6 µg/mL (≈ 60.9 µM).
CNC(=S)Nc1ccc([N+](=O)[O-])c(C)c1 gave a solubility kinetic of 32.3 µg/mL (≈ 143 µM).
COc1cccc(C(=O)NC2CCCc3ccccc32)c1OC (stereo unspecified) gave a solubility kinetic of 31.6 µg/mL (≈ 101 µM).
With O=C(Nc1nnc2n1CCS2)c1ccco1 the solubility kinetic was over 35.4 µg/mL.
For O=C(CN1C(=O)NC2(CCCCCC2)C1=O)NC1CC1, the solubility kinetic was over 41.9 µg/mL.
In the case of COc1ccc2c(c1)C(=O)Nc1cc(Cl)ccc1N2, the solubility kinetic is reported as 15.6 µg/mL (≈ 56.8 µM).
Work on O=C(CCc1ccccc1)NC1CCS(=O)(=O)C1 (stereo unspecified) yielded a solubility kinetic of over 40.1 µg/mL.
Cc1cnc(C(=O)OCC(=O)c2ccc(F)cc2)cn1 showed a solubility kinetic of over 41.1 µg/mL.
In the case of O=c1c2ccccc2ncn1-c1cccc(Br)c1, the solubility kinetic is reported as 5.5 µg/mL (≈ 18.3 µM).
Work on CC(C)c1nc(Cl)c(C#N)c2c1CCC2 yielded a solubility kinetic of 4.3 µg/mL (≈ 19.5 µM).
O=C(Nc1ccc(OCc2ccccc2)cc1)c1cccs1 gave a solubility kinetic of under 0.7 µg/mL.
Work on CCc1ccccc1NC(=O)COC(=O)c1cccs1 yielded a solubility kinetic of 2.9 µg/mL (≈ 10 µM).
CC1CC(OCC(O)CN2CCCCC2C)CC(C)(C)C1.Cl (stereo unspecified) gave a solubility kinetic of over 50.1 µg/mL.
For CC(NCc1ccccc1Cl)C(=O)Nc1ccc(C#N)cc1 (stereo unspecified), the solubility kinetic was 44.5 µg/mL (≈ 142 µM).
With O=C(c1cccnc1)N1CCCC(Nc2ccc(F)cc2)C1 (stereo unspecified) the solubility kinetic was 41.6 µg/mL (≈ 139 µM).
Cc1nc(SCC(N)=O)c([N+](=O)[O-])[nH]1 showed a solubility kinetic of over 32.4 µg/mL.
In the case of CC(C)Cc1cc(C(=O)Nc2ccc(Br)cc2)no1, the solubility kinetic is reported as under 0.3 µg/mL.
